System: 435261-313-R-J1-PDC tumor spheroid viability
Test: Anticancer human tumor 435261-313-R-J1-PDC patient-derived colon adenocarcinoma cell line growth inhibition [PI3K]
Settings: spheroids with HUVEC and MSC; for IC50: curve of first compound; for viability, T/C: stronger effect = lower value
How it was run: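 Stroma-containing spheroids: tumor line, pooled-donor HUVEC, hMSC. Treatments: targeted agents with PI3K inhibitors. Dosing: clinically relevant, half-log spacing, 10 microM ceiling without known Cmax. Read-out: cell viability.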

[1] = second compound 0.0316 µM, first compound 0.00316 µM
[2] = second compound 0.0316 µM, first compound 0.01 µM
[3] = second compound 0.0316 µM, first compound 0.0316 µM
[4] = second compound 0.0316 µM, first compound 0.1 µM
[5] = second compound 0.1 µM, first compound 0.00316 µM
[6] = second compound 0.1 µM, first compound 0.01 µM
[7] = second compound 0.1 µM, first compound 0.0316 µM
[8] = second compound 0.1 µM, first compound 0.1 µM
[9] = second compound 0.316 µM, first compound 0.00316 µM
[10] = second compound 0.316 µM, first compound 0.01 µM
[11] = second compound 0.316 µM, first compound 0.0316 µM
[12] = second compound 0.316 µM, first compound 0.1 µM
[13] = second compound 1 µM, first compound 0.00316 µM
[14] = second compound 1 µM, first compound 0.01 µM
[15] = second compound 1 µM, first compound 0.0316 µM
[16] = second compound 1 µM, first compound 0.1 µM
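Further: spheroids exposed to compounds for 7 days.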

Q: For CCN1CCN(Cc2ccc(Nc3ncc(F)c(-c4cc(F)c5nc(C)n(C(C)C)c5c4)n3)nc2)CC1 + COc1c(OCCCN2CCOCC2)ccc2c3n(c(=NC(=O)c4cnc(N)nc4)nc12)CCN3, which IC50 (second compound 0.00316 µM) is on record?
A: 52.9 nM

Q: And the IC50 (second compound 0.01 µM)?
A: < 3.16 nM

Q: And the IC50 (second compound 0.0316 µM)?
A: < 3.16 nM

Q: And the IC50 (second compound 0.1 µM)?
A: < 3.16 nM

Q: What about the IC50 (second compound 0.316 µM) of the same compound?
A: < 3.16 nM

Q: What about the IC50 (second compound 1 µM) of the same compound?
A: < 3.16 nM

Q: What about the viability, T/C (second compound 0.00316 µM, first compound 0.00316 µM) of the same compound?
A: 49.3%

Q: What about the viability, T/C (second compound 0.00316 µM, first compound 0.01 µM) of the same compound?
A: 57.2%

Q: What about the viability, T/C (second compound 0.00316 µM, first compound 0.0316 µM) of the same compound?
A: 65.2%

Q: And the viability, T/C (second compound 0.00316 µM, first compound 0.1 µM)?
A: 35.8%

Q: What about the viability, T/C (second compound 0.00316 µM, first compound 0.316 µM) of the same compound?
A: 40.6%

Q: What about the viability, T/C (second compound 0.00316 µM, first compound 1 µM) of the same compound?
A: 46.6%

Q: And the viability, T/C (second compound 0.01 µM, first compound 0.00316 µM)?
A: 42.3%

Q: What about the viability, T/C (second compound 0.01 µM, first compound 0.01 µM) of the same compound?
A: 39.8%

Q: And the viability, T/C (second compound 0.01 µM, first compound 0.0316 µM)?
A: 35.4%

Q: And the viability, T/C (second compound 0.01 µM, first compound 0.1 µM)?
A: 33%

Q: What about the viability, T/C (second compound 0.01 µM, first compound 0.316 µM) of the same compound?
A: 32.7%

Q: What about the viability, T/C (second compound 0.01 µM, first compound 1 µM) of the same compound?
A: 42.5%

Q: And the viability, T/C [1]?
A: 28.9%

Q: And the viability, T/C [2]?
A: 22.6%

Q: What about the viability, T/C [3] of the same compound?
A: 24.1%

Q: What about the viability, T/C [4] of the same compound?
A: 23.3%

Q: What about the viability, T/C (second compound 0.0316 µM, first compound 0.316 µM) of the same compound?
A: 26.6%

Q: What about the viability, T/C (second compound 0.0316 µM, first compound 1 µM) of the same compound?
A: 25.2%

Q: What about the viability, T/C [5] of the same compound?
A: 15.2%

Q: And the viability, T/C [6]?
A: 15.4%

Q: What about the viability, T/C [7] of the same compound?
A: 18.1%

Q: What about the viability, T/C [8] of the same compound?
A: 13.7%

Q: And the viability, T/C (second compound 0.1 µM, first compound 0.316 µM)?
A: 15.6%

Q: What about the viability, T/C (second compound 0.1 µM, first compound 1 µM) of the same compound?
A: 16.7%

Q: What about the viability, T/C [9] of the same compound?
A: 8.47%

Q: What about the viability, T/C [10] of the same compound?
A: 8.29%

Q: What about the viability, T/C [11] of the same compound?
A: 8.24%

Q: What about the viability, T/C [12] of the same compound?
A: 6.93%

Q: What about the viability, T/C (second compound 0.316 µM, first compound 0.316 µM) of the same compound?
A: 8.43%

Q: What about the viability, T/C (second compound 0.316 µM, first compound 1 µM) of the same compound?
A: 9.13%

Q: What about the viability, T/C [13] of the same compound?
A: 4.09%

Q: And the viability, T/C [14]?
A: 3.66%

Q: And the viability, T/C [15]?
A: 3.83%

Q: What about the viability, T/C [16] of the same compound?
A: 2.75%

Q: What about the viability, T/C (second compound 1 µM, first compound 0.316 µM) of the same compound?
A: 3.7%

Q: And the viability, T/C (second compound 1 µM, first compound 1 µM)?
A: 3.49%

Q: What does the source list for Cn1ncnc1[C@H]1c2n[nH]c(=O)c3cc(F)cc(c23)N[C@@H]1c1ccc(F)cc1 + Cc1nc(NC(=O)N2CCCC2C(N)=O)sc1-c1ccnc(C(C)(C)C(F)(F)F)c1?
A: IC50 (second compound 0.0316 µM): > 100 nM; IC50 (second compound 0.1 µM): > 100 nM; IC50 (second compound 0.316 µM): 6.18 nM; IC50 (second compound 1 µM): < 0.316 nM; IC50 (second compound 3.16 µM): < 0.316 nM; IC50 (second compound 10 µM): < 0.316 nM; viability, T/C (second compound 0.0316 µM, first compound 0.000316 µM): 81.6%; viability, T/C (second compound 0.0316 µM, first compound 0.001 µM): 65%; viability, T/C [1]: 79.8%; viability, T/C [2]: 77.1%; viability, T/C [3]: 79.1%; viability, T/C [4]: 66.4%; viability, T/C (second compound 0.1 µM, first compound 0.000316 µM): 63%; viability, T/C (second compound 0.1 µM, first compound 0.001 µM): 93.9%; viability, T/C [5]: 65.5%; viability, T/C [6]: 64.8%; viability, T/C [7]: 66.4%; viability, T/C [8]: 56.3%; viability, T/C (second compound 0.316 µM, first compound 0.000316 µM): 35.8%; viability, T/C (second compound 0.316 µM, first compound 0.001 µM): 62.8%; viability, T/C [9]: 49.4%; viability, T/C [10]: 59.8%; viability, T/C [11]: 39.4%; viability, T/C [12]: 36.6%; viability, T/C (second compound 1 µM, first compound 0.000316 µM): 36.5%; viability, T/C (second compound 1 µM, first compound 0.001 µM): 29.8%; viability, T/C [13]: 24.6%; viability, T/C [14]: 30.5%; viability, T/C [15]: 26.9%; viability, T/C [16]: 22.8%; viability, T/C (second compound 3.16 µM, first compound 0.000316 µM): 16.4%; viability, T/C (second compound 3.16 µM, first compound 0.001 µM): 21.4%; viability, T/C (second compound 3.16 µM, first compound 0.00316 µM): 17.5%; viability, T/C (second compound 3.16 µM, first compound 0.01 µM): 18.5%; viability, T/C (second compound 3.16 µM, first compound 0.0316 µM): 18.4%; viability, T/C (second compound 3.16 µM, first compound 0.1 µM): 16.7%; viability, T/C (second compound 10 µM, first compound 0.000316 µM): 10.5%; viability, T/C (second compound 10 µM, first compound 0.001 µM): 9.23%; viability, T/C (second compound 10 µM, first compound 0.00316 µM): 7.91%; viability, T/C (second compound 10 µM, first compound 0.01 µM): 9.55%; viability, T/C (second compound 10 µM, first compound 0.0316 µM): 9%; viability, T/C (second compound 10 µM, first compound 0.1 µM): 7.58%
